Consider 15 compounds from ChEMBL document CHEMBL1201862, “PubChem BioAssay data set” (2004).

Assay in all cases: growth of human tumour cells (NCI), 48 h
Assay [1] deals with SK-MEL-28.
Assay [2] relates to SN12C.
Assay [3] deals with EKVX.
Assay [4] has as its system SF-295.
For assay [5], the system named is TK-10.
Assay [6] deals with OVCAR-8.
The subject of assay [7] is CCRF-CEM.
The subject of assay [8] is HCC 2998.
Assay [9] concerns SF-268.
Assay [10] deals with HCT-15.
For assay [11], the system named is M14.
Assay [12] has as its system OVCAR-4.
In assay [13] the test system is HOP-92.
For assay [14], the system named is UO-31.
Assay [15] deals with RXF 393.
Assay [16] concerns SR.

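1) Cells in 96-well plates. 2) Compound, 48 h, 5 concentrations. 3) Linear interpolation between surrounding doses. 4) Unreached endpoint = highest concentration. GI50 is the concentration that inhibits growth by half.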 Active and inactive are the calls of the source. No stated cut-off is given here; in the data, active = GI50 up to about 1.1 µM and inactive = higher. Where only a bound is given, the exact number is not on record here.

Turning to `O=C(Nc1ccc(Cl)cc1C(=O)O)c1ccc([N+](=O)[O-])cc1`, the GI50 in assay [1] is 28.2 µM (inactive); in assay [2], 37.2 µM (inactive); in assay [3], 29.5 µM (inactive); in [4], 23.7 µM (inactive); in [5] it was 31.4 µM (inactive); in assay [6], 26.7 µM (inactive). Moreover, the GI50 in [7] is 20.2 µM (inactive); in [8], 11.2 µM (inactive); in [9], 20.2 µM (inactive); in assay [10], 16.7 µM; in assay [11] it was 24.3 µM (inactive); in [12] it was 18.6 µM (inactive). Moreover, the GI50 in assay [13] was 8.18 µM (inactive); in assay [14], 19 µM (inactive).

As to `Nc1c(-c2nc3ccccc3s2)[n+]([O-])c2ccccc2[n+]1[O-]`, the GI50 in assay [1] was 25.2 µM (inactive); in assay [3], 51.6 µM (inactive); in [4], 23.6 µM (inactive); in [5], 42.1 µM (inactive); in assay [6] it was 38.6 µM (inactive); in assay [7] it was 42.6 µM (inactive). In addition, the GI50 in [8] was 38.1 µM (inactive); in assay [9] it was 26.9 µM (inactive); in [11], 29.6 µM (inactive); in [12], 42.1 µM (inactive); in assay [13] it was 23.1 µM (inactive); in assay [14], 21.8 µM (inactive).

Consider `O=C1CC23CC(=O)CC2(C1)c1ccccc1C3=O` (stereo not given), for which the GI50 in assay [1], in [2], in assay [3], in assay [4], in [5] and in assay [6] was > 100 µM (inactive) in each case. The GI50 in [7] was > 100 µM (inactive); in [8] it was > 100 µM (inactive); in assay [9], > 100 µM (inactive); in assay [11], > 100 µM (inactive); in [15], 40.6 µM (inactive); in [14], > 100 µM (inactive).

For `CC(C)c1ccc(/C=C(\NC(=O)c2ccccc2)c2nc3ccccc3[nH]2)cc1`, the GI50 in [1] is > 10 µM (inactive); in [2] it was 55 µM (inactive); in assay [3] it was 34.7 µM (inactive); in assay [5], 54.5 µM (inactive); in [6], 32.4 µM (inactive); in assay [7] it was 34.1 µM (inactive). The GI50 in assay [9] is 41 µM (inactive); in assay [10] it was 43.1 µM; in assay [11], 32.3 µM (inactive); in assay [12], 30.2 µM (inactive); in assay [15] it was 36.5 µM (inactive); in assay [13] it was 36.7 µM (inactive). For the same compound, in assay [14], the GI50 is 38.7 µM (inactive).

`COc1ccc(C(=O)N2c3ccccc3N(C)n3cccc3C2CC(=O)O)cc1` (stereo not given): the GI50 in assay [1], in assay [2], in assay [3], in assay [4], in assay [5] and in assay [6] was > 100 µM (inactive) in each case. For the same compound, the GI50 was > 100 µM (inactive) in assay [7]; > 100 µM (inactive) in assay [8]; > 100 µM (inactive) in assay [9]; more than 100 µM in [10]; > 100 µM (inactive) in [11]; > 100 µM (inactive) in [12]. Besides, the GI50 in assay [15], in assay [13] and in [14] was > 100 µM (inactive) each time.

As to `Cc1noc(C)c1CCCOC1COc2ccccc2OCCOCCOc2ccccc2OC1`, the GI50 in [1], in [2], in assay [3], in [4], in assay [5] and in assay [6] was > 100 µM (inactive) in each case. Moreover, the GI50 in assay [8] was > 100 µM (inactive); in assay [9], > 100 µM (inactive); in [10], more than 100 µM; in [11], > 100 µM (inactive); in assay [12] it was > 100 µM (inactive); in [15], > 100 µM (inactive). For the same compound, the GI50 in assay [14] was > 100 µM (inactive).

`O=C1c2ccc(O)cc2C(=O)c2ccc(O)cc21`: the GI50 in assay [1] is 78.5 µM (inactive); in [2], 73.5 µM (inactive); in assay [3] it was 67.3 µM (inactive); in [4], > 100 µM (inactive); in assay [5], 61.8 µM (inactive); in assay [6], > 100 µM (inactive). The GI50 in assay [7] is 59.3 µM (inactive); in assay [8], 46.3 µM (inactive); in [9], 55.3 µM (inactive); in assay [10], 52.5 µM; in [11], 58.9 µM (inactive); in [12], > 100 µM (inactive). The GI50 in assay [15] was 29.9 µM (inactive); in assay [13], 63.1 µM (inactive); in assay [14], 24.3 µM (inactive).

Take `C/C(=N/NC(=O)c1ccccc1O)c1ccc(/C(C)=N\NC(=O)c2ccccc2O)c2nc3cc(C)c(C)cc3nc12`: the GI50 in assay [1], in [2], in assay [3], in [4], in assay [5] and in assay [6] was > 100 µM (inactive) throughout. The GI50 in [7] was > 100 µM (inactive); in assay [8] it was > 100 µM (inactive); in assay [9], > 100 µM (inactive); in assay [10], more than 100 µM; in assay [11] it was > 100 µM (inactive); in assay [12] it was > 100 µM (inactive). Besides, the GI50 in assay [15] is > 100 µM (inactive); in assay [13], 54.7 µM (inactive); in assay [14], > 100 µM (inactive).

As to `Cc1cc2cc(Cl)ccc2nc1C(=O)c1ccccc1`, the GI50 in assay [1] is > 100 µM (inactive); in assay [2], > 100 µM (inactive); in assay [4], 27.8 µM (inactive); in assay [5], > 100 µM (inactive); in assay [6] it was > 100 µM (inactive); in assay [8] it was > 100 µM (inactive). The GI50 is > 100 µM (inactive) in assay [9]; more than 100 µM in assay [10]; > 100 µM (inactive) in assay [11]; > 100 µM (inactive) in assay [12]; > 100 µM (inactive) in assay [16]; 22.5 µM (inactive) in assay [15]. Further, the GI50 in assay [14] was > 100 µM (inactive).

`CCc1ccc(/N=C\c2cc(OC)c(OC)c(OC)c2)cc1`: the GI50 in assay [1], in [2], in assay [3], in assay [4], in assay [5] and in [6] was > 100 µM (inactive) each time. For the same compound, the GI50 in [7] was 40.7 µM (inactive); in assay [9], > 100 µM (inactive); in [10], more than 100 µM; in assay [11], > 100 µM (inactive); in assay [12], > 100 µM (inactive); in assay [15] it was > 100 µM (inactive). The GI50 in assay [13] and in assay [14] was > 100 µM (inactive) each time.

In the case of `O=C(NCCCN1CCN(CCCNC(=O)c2cccc3ccccc23)CC1)c1cccc2ccccc12`, the GI50 in assay [2] was > 100 µM (inactive); in assay [3], > 100 µM (inactive); in [4], 54.8 µM (inactive); in assay [5], 65.3 µM (inactive); in assay [6] it was > 100 µM (inactive); in assay [7], > 100 µM (inactive). Also, the GI50 is 35.1 µM (inactive) in assay [8]; more than 100 µM in assay [10]; > 100 µM (inactive) in assay [11]; > 100 µM (inactive) in assay [12]; 0.107 µM (active) in assay [13]; 32.3 µM (inactive) in [14].

With `O=C(O)CCC1CCc2cccc3occ1c23` (stereo not given), the GI50 in assay [1], in assay [2], in assay [3], in assay [4], in [5] and in [6] was > 100 µM (inactive) each time. Moreover, the GI50 in assay [7] was > 100 µM (inactive); in assay [8], > 100 µM (inactive); in assay [9], > 100 µM (inactive); in [10], more than 100 µM; in [11] it was > 100 µM (inactive); in [12], > 100 µM (inactive). Besides, the GI50 in [15], in [13] and in assay [14] was > 100 µM (inactive) in each case.

`CCOC(=O)CC1=N/C(=N/c2cc(Cl)ccc2Cl)SC1`: the GI50 in assay [1], in [2], in assay [3], in [4], in [5] and in [6] was > 100 µM (inactive) in each case. Moreover, the GI50 in assay [7] is 76.9 µM (inactive); in [8] it was > 100 µM (inactive); in assay [9], > 100 µM (inactive); in assay [10] it was 59.4 µM; in [11], > 100 µM (inactive); in [12] it was > 100 µM (inactive). Further, the GI50 in assay [15], in [13] and in assay [14] was > 100 µM (inactive) in each case.

Regarding `CCOC(=O)Nn1c(C)cc(C(=O)OC)c1C`, the GI50 in assay [1], in assay [2], in assay [3], in assay [4], in assay [5] and in assay [6] was > 100 µM (inactive) throughout. For the same compound, the GI50 in [7] was > 100 µM (inactive); in assay [8], > 100 µM (inactive); in assay [9], > 100 µM (inactive); in assay [10] it was more than 100 µM; in assay [11], > 100 µM (inactive); in assay [15] it was > 100 µM (inactive). Also, in [14], the GI50 was > 100 µM (inactive).

With `c1ccc(C2C3=C(Nc4ncnn42)c2ccccc2C3)cc1` (stereo not given), the GI50 in assay [2] is 35.3 µM (inactive); in assay [3], 87.5 µM (inactive); in assay [4], 8.02 µM (inactive); in assay [5], 35 µM (inactive); in assay [6], 30.8 µM (inactive); in assay [7], 15.5 µM (inactive). The GI50 is 8.15 µM (inactive) in assay [8]; 20 µM (inactive) in assay [9]; 20.1 µM in assay [10]; 5.38 µM (inactive) in assay [11]; 95.9 µM (inactive) in [12]; 21.1 µM (inactive) in assay [15]. Further, the GI50 in [13] is 21.8 µM (inactive); in assay [14], 48.2 µM (inactive).
